Results reported in US8309598B2, “Cooling compounds” (Givaudan S.A., priority 2007, dated 2012).

Legend:
Assay type in all cases: in vivo
[1] = Tasting in CoolMint Listerine against CoolMint Listerine as control; details: 0.08% w/w of a 1.0% w/w EtOH solution in 99.92% w/w CoolMint Listerine
Procedure: A 0.08% w/w sample of 5-(4H-benzo[d][1,3]oxathiin-2-yl)-2,3-dimethoxyphenol (1.0% w/w in EtOH) was added to 99.92% w/w CoolMint Listerine™ and the contents were mixed well. The resulting mixture was tasted using CoolMint Listerine™ as the control.

[2] = Tasting in sweetened lime-flavored beverage against control without compound; details: 0.07% w/w of a 1.0% w/w EtOH solution in lime beverage (10% fruit sugar, citric acid)
Procedure: Granulated fruit sugar, 10% w/w, 0.25% w/W of citric acid, 0.24% w/w of FD&C yellow #5 (0.1% w/w in water), 0.24% of FD&C blue #1 (0.01% w/w in water), 0.1% w/w 15 fold lime oil (1.0% w/w in EtOH), 0.03% w/v of sodium citrate and 0.07% w/w of 5-(4H-benzo[d][1,3]oxathiin-2-yl)-2,3-dimethoxyphenol (1.0% w/w in EtOH) were added to 89.07% w/v of de-ionized water. The control was prepared by eliminating 5-(4H-benzo[d][1,3]oxathiin-2-yl)-2,3-dimethoxyphenol and increasing the water content to 89.14%.

[3] = Tasting of a dilute solution in de-ionized water against water as control
Procedure: A 0.1% w/w solution of 5-(4H-benzo[d][1,3]oxathiin-2-yl)-2-methoxyphenol was prepared in ethanol and diluted, with good mixing, into de-ionized water: thereby, generating a 1 ppm solution of 5-(4H-benzo[d][1,3]oxathiin-2-yl)-2-methoxyphenol in water. This solution was tasted using de-ionized water as the control.
A 20 ppm solution of 5-(4H-benzo[d][1,3]oxathiin-2-yl)-2,3-dimethoxyphenol (0.1% w/w in EtOH) was prepared in de-ionized water. The resulting solution was evaluated against de-ionized water as the control.
One gram of a 1000 ppm solution of 2-(4-methoxyphenyl)-4H-benzo[d][1,3]oxathiine in EtOH was added to 99 grams of water generating a 10 ppm taste solution. This solution was tasted relative to water.
One gram of a 1000 ppm solution of 4-(4H-benzo[d][1,3]oxathiin-2-yl)phenol in EtOH was added to 99 grams of water generating a 10 ppm taste solution. This solution was tasted relative to water.

[4] = Tasting in almond-flavored 2% milk against control without compound; details: 0.01 g of a 1% EtOH solution with 0.01 g natural almond flavor in 99.98 g of 2% milk
Procedure: Natural almond flavor 0.01 g and 0.01 g of a 1% solution of 4-(4H-benzo[d][1,3]oxathiin-2-yl)benzonitrile in EtOH were added to 99.98 g of 2% milk and the contents were mixed well. This solution was tasted relative to the control, which was made up of 0.01 g of natural almond flavor and 99.99 g of 2% milk.

[5] = Tasting in banana-flavored thawed vanilla ice cream against control without compound; details: 0.02 g of a 1% EtOH solution with 0.02 g banana flavor in 99.96 g thawed vanilla ice cream
Procedure: Vanilla ice cream was thawed in the microwave for 20 seconds. Next, 0.02 g of N&A banana ice cream flavor and 0.02 g of a 1% solution of 5-(4H-benzo[d][1,3]oxathiin-2-yl)-2-ethoxyphenol in EtOH were added to 99.96 g of the thawed vanilla ice cream. The resulting mixture was mixed well with a spoon and tasted relative to the control, which was made up of 0.02 g of the N&A banana flavor in 99.98 g of the thawed vanilla ice cream.

[6] = Tasting in cantaloupe-flavored taffy against control without compound; details: 0.14% w/w of a 0.1% w/v EtOH solution in cantaloupe-flavored taffy with malic acid
Procedure: A desired quantity of taffy was chipped off using hammer and chisel and melted in the microwave for 5-30 seconds depending on batch size. Next, 1.2% w/w of a cantaloupe flavor (Givaudan) was added to 98.26% w/w sample of the taffy followed by 0.4% w/w of granular malic acid and 0.14% w/w of 5-(4H-benzo[d][1,3]oxathiin-2-yl)-2-methoxyphenol (0.1% w/v in EtOH). The control sample was produced the same by increasing the taffy base to make up for the absence of 5-(4H-benzo[d][1,3]oxathiin-2-yl)-2-methoxyphenol in the formula. In both the control and the experimental sample, the contents were well mixed by hand while wearing gloves. The taffy was shaped into individual portions and covered in an airtight container overnight.

[7] = Tasting in pistachio-flavored sweetened milk against control without compound; details: 0.8 ppm sample in pistachio-flavored sweetened milk
Procedure: A pistachio-flavored sweetened milk was prepared using 87.52% by weight of 2% reduced fat milk, 10% by weight of granulated fruit sugar, 1.4% w/w of FD&C Blue #1 (0.01% w/w in water), 0.8% w/w of FD&C yellow #5 (0.1% w/w in water). 0.2% w/w of natural pistachio flavor (Givaudan) and 0.08% of a 0.10% w/w solution of 5-(4H-benzo[d][1,3]oxathiin-2-yl)-2-methoxyphenol in ethanol generating a 0.8 ppm sample. The control was prepared the same by increasing the milk to 87.6% and leaving out 5-(4H-benzo[d][1,3]oxathiin-2-yl)-2-methoxyphenol.

[8] = Tasting in sugar/lemon flavor water against control without compound; details: 1 gram of 1000 ppm EtOH solution with 5 g sugar, 1 gram 1% lemon flavor, 93 grams water
Procedure: Five grams of sugar, 1 gram of a 1% solution of lemon flavor in EtOH and 1 gram of a 1000 ppm solution of 2-(4-methoxyphenyl)-4H-benzo[d][1,3]oxathiine in EtOH were added to 93 grams water. The resulting solution was tasted relative to a control made up of 5 g sugar, 1 gram lemon flavor and 94 g water.
Five grams of sugar, 1 gram of a 1% solution of lemon flavor in EtOH and 1 gram of a 1000 ppm solution of 4-(4H-benzo[d][1,3]oxathiin-2-yl)phenol in EtOH were added to 93 grams water. The resulting solution was tasted relative to a control made up of 5 g sugar, 1 gram lemon flavor and 94 g water.

[9] = 10 ppm taste solution in water, tasted relative to water

## COc1cc(C2OCc3ccccc3S2)cc(O)c1OC (stereo not drawn) [Example 2, 5-(4H-benzo[d][1,3]oxathiin-2-yl)-2,3-dimethoxyphenol]
[1]
  Comments on flavor modification: retronasal burn, cooling enhancement, intensifies flavor, increased eucalyptus, slow onset then strong burn, sweet and alcohol enhancement
[2]
  Comments on flavor modification: sweet, cooling, astringent, juicy, mouth-watering and tart/bite
[3]; 20 ppm solution in de-ionized water, control de-ionized water
  Comments on flavor properties: cooling, sweet, burns tongue, lingering sweetness, bitter and lingering cooling

## N#Cc1ccc(C2OCc3ccccc3S2)cc1 (stereo not drawn) [Example 3, 4-(4H-benzo[d][1,3]oxathiin-2-yl)benzonitrile]
[4]
  Comments on flavor modification: stronger flavor, more toasted note, earthy note, more authentic, cooling, bitter almond like, sweeter, more nutty and nut skin

## CCOc1ccc(C2OCc3ccccc3S2)cc1O (stereo not drawn) [Example 1, 5-(4H-benzo[d][1,3]oxathiin-2-yl)-2-ethoxyphenol]
[5]
  Comments on flavor modification: enhances flavor, makes the banana riper, increases creaminess, sweeter and cooling

## COc1ccc(C2OCc3ccccc3S2)cc1O (stereo not drawn) [5-(4H-benzo[d][1,3]oxathiin-2-yl)-2-methoxyphenol]
[6]
  Comments on flavor modification: sweeter, cooling, enhanced sourness, salivating, aroma enhancement and increased impact
[3]; 1 ppm solution in water, control de-ionized water
  Comments on flavor properties relative to the control: sweet, cooling and lingering
[7]
  Comments on flavor modification: enhanced flavor impact, sweeter, cooling, enhanced creaminess, enhanced nutty character, sour aftertaste and brighter

## COc1ccc(C2OCc3ccccc3S2)cc1 (stereo not drawn) [2-(4-methoxyphenyl)-4H-benzo[d][1,3]oxathiine]
[3]; [9]
  Comments on flavor properties: cooling, slightly anisic, lingering cooling
[8]
  Comments on flavor modification: cooling, anise, sweeter, bitter peel, more acidic, tingle, lingering flavor, better aroma and refreshing

## Oc1ccc(C2OCc3ccccc3S2)cc1 (stereo not drawn) [Example 4, 4-(4H-benzo[d][1,3]oxathiin-2-yl)phenol]
[3]; [9]
  Comments on flavor properties: slightly sweet and slightly alliaceous
[8]
  Comments on flavor modification: cooling, dirty, sweeter, lemon peel, nutty and bitter
